Data taken from the NIST ThermoML archive (doi:10.1016/j.jct.2006.02.008).
± gives the expanded uncertainty stated by the source.

What was measured:
[1] = refractive index (Na D-line) (dimensionless); settings: 293.2 K; 101.33 kPa; Liquid; Standard Abbe refractometry

Row | Normal melting temperature (Crystal, visual observation) [°C] | SMILES | mass density (293.2 K, 101.33 kPa, Liquid, Pycnometric method) [kg/m3] | refractive index [1]
1 | 52.7 ± 0.5 | O=C1C=CC(=O)O1 [maleic anhydride] |  | 
2 |  | CCOC(=O)c1ccccc1C(=O)OCC [diethyl phthalate] | 1118.2 ± 1 | 1.5016 ± 0.0007
